Test [1] addresses T1, Kv1.3 potassium channel (Homo sapiens, UniProt P22001).
T1 construct: expressed in transfected cells
Put plainly: Kv1.3 potassium channel blocker activity, automated whole-cell patch clamp (Patchliner). The conditions noted are these: CHO-K1 cells stably expressing Kv1.3; whole cell current inhibition; read-out: Kv1.3_IC50. It is filed as cell-based. In outline: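 Peak-current block was recorded on stable Kv1.3 CHO-K1 cells by automated patch clamp, stepping from a −90 mV holding potential to +40 mV for 100 ms at 0.1 Hz with 10 s breaks between trains. Online P/4 leak subtraction, 10 kHz sampling; compound exposure under 10 s per train.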
(Patch clamp records ionic current or voltage across a cell membrane.)

Test [2] deals with hERG channel (Homo sapiens, UniProt Q12809). Put plainly: hERG electrophysiology, automated whole-cell patch clamp (Patchliner).
Sequence of hERG channel (Q12809 whole entry): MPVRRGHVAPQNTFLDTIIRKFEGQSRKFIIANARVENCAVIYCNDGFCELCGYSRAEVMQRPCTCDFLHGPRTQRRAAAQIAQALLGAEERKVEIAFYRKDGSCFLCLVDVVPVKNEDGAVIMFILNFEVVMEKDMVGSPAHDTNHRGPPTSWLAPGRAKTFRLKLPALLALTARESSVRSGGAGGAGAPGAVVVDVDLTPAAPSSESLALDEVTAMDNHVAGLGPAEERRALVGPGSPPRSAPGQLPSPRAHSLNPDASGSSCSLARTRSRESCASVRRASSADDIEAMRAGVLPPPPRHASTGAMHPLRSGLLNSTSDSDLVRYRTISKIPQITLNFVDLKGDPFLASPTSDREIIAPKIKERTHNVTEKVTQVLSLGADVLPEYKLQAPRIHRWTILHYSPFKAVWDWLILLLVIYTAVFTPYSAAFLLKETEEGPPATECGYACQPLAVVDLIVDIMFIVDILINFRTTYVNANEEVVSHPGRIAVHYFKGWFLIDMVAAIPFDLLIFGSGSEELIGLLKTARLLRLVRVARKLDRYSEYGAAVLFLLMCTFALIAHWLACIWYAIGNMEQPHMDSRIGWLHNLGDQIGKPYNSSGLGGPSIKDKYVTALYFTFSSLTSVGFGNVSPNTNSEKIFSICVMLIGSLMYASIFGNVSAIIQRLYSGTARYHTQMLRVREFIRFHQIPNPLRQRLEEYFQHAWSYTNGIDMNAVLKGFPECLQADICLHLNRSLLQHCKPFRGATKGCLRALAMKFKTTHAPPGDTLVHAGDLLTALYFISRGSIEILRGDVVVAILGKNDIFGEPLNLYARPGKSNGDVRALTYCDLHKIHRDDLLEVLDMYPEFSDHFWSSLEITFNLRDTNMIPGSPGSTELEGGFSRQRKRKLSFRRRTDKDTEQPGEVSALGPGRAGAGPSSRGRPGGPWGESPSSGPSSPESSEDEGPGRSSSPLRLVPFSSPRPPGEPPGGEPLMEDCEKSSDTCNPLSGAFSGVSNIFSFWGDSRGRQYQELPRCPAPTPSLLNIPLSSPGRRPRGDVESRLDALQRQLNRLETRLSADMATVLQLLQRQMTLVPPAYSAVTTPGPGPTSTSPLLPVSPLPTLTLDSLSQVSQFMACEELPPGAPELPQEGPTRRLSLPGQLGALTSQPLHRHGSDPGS

T1 sequence (P22001 whole entry): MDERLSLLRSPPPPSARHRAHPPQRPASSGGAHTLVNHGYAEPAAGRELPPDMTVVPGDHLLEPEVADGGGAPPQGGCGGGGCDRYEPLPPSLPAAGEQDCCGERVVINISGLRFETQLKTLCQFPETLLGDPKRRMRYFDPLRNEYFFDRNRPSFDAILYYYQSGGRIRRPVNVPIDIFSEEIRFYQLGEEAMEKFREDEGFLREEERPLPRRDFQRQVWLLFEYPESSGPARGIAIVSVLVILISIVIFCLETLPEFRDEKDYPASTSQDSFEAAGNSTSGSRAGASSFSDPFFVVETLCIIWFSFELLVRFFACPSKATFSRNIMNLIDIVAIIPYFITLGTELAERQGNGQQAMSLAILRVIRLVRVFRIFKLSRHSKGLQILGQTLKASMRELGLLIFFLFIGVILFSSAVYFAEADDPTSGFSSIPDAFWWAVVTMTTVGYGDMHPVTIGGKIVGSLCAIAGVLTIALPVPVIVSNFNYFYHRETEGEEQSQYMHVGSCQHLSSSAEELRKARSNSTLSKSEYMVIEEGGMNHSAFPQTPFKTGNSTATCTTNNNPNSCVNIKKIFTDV

Broadly, the IC50 is the point on the concentration scale where inhibition reaches its midpoint. Turning to `Cc1cc(O)c([C@H](N)C2CCN(C(=O)C3CCS(=O)(=O)CC3)CC2)cc1Cl` [Compound 247, (R)-(4-(amino(5-chloro-2-hydroxy-4-methylphenyl)methyl)piperidin-1-yl)(1,1-dioxidotetrahydro-2H-thiopyran-4-yl)methanone trifluoroacetic acid], the IC50 is below 500 nM in test [1] and above 30 µM in test [2].

For the molecule `Nc1nc(N2CCC([C@@H](N)c3cc(Cl)c(Cl)cc3O)CC2)no1` [Compound 183, 2-[(R)-amino[1-(5-amino-1,2,4-oxadiazol-3-yl)piperidin-4-yl]methyl]-4,5-dichlorophenol], the figures for the IC50 in test [1] and in test [2] were below 500 nM and below 30 µM, respectively.

In the case of `N[C@@H](c1cc(Cl)c(Cl)cc1O)C1CCN(S(=O)(=O)CCO)CC1` [Compound 145, (R)-2-(amino(1-((2-hydroxyethyl)sulfonyl)piperidin-4-yl)methyl)-4,5-dichlorophenol Trifluoroacetic Acid], the IC50 in test [1] was below 500 nM; in test [2], below 30 µM.

As to `N[C@@H](c1cc(Cl)c(Cl)cc1O)C1CCN(C(=O)[C@@H]2CC[C@H](O)C2)CC1` (single isomer, unassigned; isomer 2) [Compound 179], the IC50 in test [1] is below 500 nM; in test [2], below 30 µM.

For `N[C@@H](c1cc(Cl)c(Cl)cc1O)C1CCN(S(=O)(=O)C2CNC2)CC1` [Compound 107, 2-[(R)-amino[1-(azetidine-3-sulfonyl)piperidin-4-yl]methyl]-4,5-dichlorophenol], the IC50 was below 500 nM in test [1] and above 30 µM in test [2].

On to `C[C@@H](O)[C@H](N)C(=O)N1CCC([C@@H](N)c2cc(Cl)c(Cl)cc2O)CC1` [Compound 174, (2S,3R)-2-amino-1-[4-[(R)-amino(4,5-dichloro-2-hydroxyphenyl)methyl]piperidin-1-yl]-3-hydroxybutan-1-one bis (trifluoroacetic acid)], for which the IC50 was below 10000 nM in test [1] and above 30 µM in test [2].

Take `Cc1cc(O)c([C@H](N)C2CCN(C(=O)C3CNC3)CC2)cc1Cl` [Compound 235, 2-[(R)-amino[1-(azetidine-3-carbonyl)piperidin-4-yl]methyl]-4-chloro-5-methylphenol trifluoroacetic acid]: the IC50 in test [1] is below 500 nM; in test [2], above 30 µM.

As for `Cc1cc([C@H](N)C2CCN(C(=O)[C@H](O)CO)CC2)c(O)cc1Cl` [Compound 198, (2R)-1-[4-[(R)-amino(4-chloro-2-hydroxy-5-methylphenyl)methyl]piperidin-1-yl]-2,3-dihydroxypropan-1-one], the values for the IC50 in test [1] and in test [2] were below 10000 nM and above 30 µM, respectively.

For the molecule `CC(=O)N1CCC([C@@H](N)c2cc(Cl)c(Cl)cc2O)CC1` (single isomer, unassigned) [Compound 20], the IC50 in test [1] is below 500 nM; in test [2], below 30 µM.

For `Cc1cc(O)c([C@H](N)C2CCN(C(=O)[C@H](O)CO)CC2)cc1F` [Compound 283, (2R)-1-[4-[(R)-amino(5-fluoro-2-hydroxy-4-methylphenyl)methyl]piperidin-1-yl]-2,3-dihydroxypropan-1-one], the IC50 in test [1] is below 10000 nM; in test [2] it was above 30 µM.

`Cc1n[nH]c(C)c1C(=O)N1CCC([C@@H](N)c2cc(Cl)c(Cl)cc2O)CC1` [Compound 159, 2-[(R)-amino[1-(3,5-dimethyl-1H-pyrazole-4-carbonyl)piperidin-4-yl]methyl]-4,5-dichlorophenol]: the IC50 in test [1] was below 10000 nM; in test [2], above 30 µM.

As to `N[C@@H](c1c(O)cc(Cl)c(Cl)c1F)C1CCN(C(=O)c2ccc(=O)[nH]c2)CC1` [Compound 257, 5-[4-[(R)-amino(3,4-dichloro-2-fluoro-6-hydroxyphenyl)methyl]piperidine-1-carbonyl]-1H-pyridin-2-one Trifluoroacetic Acid], the IC50 in test [1] was below 500 nM; in test [2], above 30 µM.

Consider `C[C@@H](N)C(=O)N1CCC([C@@H](N)c2cc(Cl)c(Cl)cc2O)CC1` (single isomer, unassigned) [Compound 69], for which the figures for the IC50 in test [1] and in test [2] were below 500 nM and above 30 µM, respectively.

With `N[C@@H](c1cc(Cl)c(Cl)cc1O)C1CCN(C(=O)C2CC(O)(CO)C2)CC1` (stereo partly drawn) [Compound 213, 2-[(R)-amino([1-[3-hydroxy-3-(hydroxymethyl)cyclobutane-carbonyl]piperidin-4-yl])methyl]-4,5-dichlorophenol trifluoroacetic acid], the IC50 was below 500 nM in test [1] and above 30 µM in test [2].

For the molecule `Cc1cc(O)c([C@H](N)C2CCN(C(=O)c3ccc(=O)n(CCO)c3)CC2)cc1Cl` [Compound 249, 5-[4-[(R)-amino (5-chloro-2-hydroxy-4-methylphenyl)methyl]piperidine-1-carbonyl]-1-(2-hydroxyethyl) pyridin-2-one trifluoroacetic acid], the 50% inhibitory concentration (IC50) is below 500 nM in test [1] and above 30 µM in test [2].

As to `N[C@@H](c1cc(Cl)c(Cl)cc1O)C1CCN(C(=O)[C@@H]2CCNC2)CC1` (single isomer, unassigned) [Compound 80], the IC50 is below 500 nM in test [1] and above 30 µM in test [2].

In the case of `CCc1cc(O)c([C@H](N)C2CCN(C(=O)[C@H](O)CO)CC2)cc1Cl` [Compound 292, (2R)-1-[4-[(R)-amino(5-chloro-4-ethyl-2-hydroxyphenyl)methyl]piperidin-1-yl]-2,3-dihydroxypropan-1-one Trifluoroacetic Acid], the IC50 in test [1] was below 500 nM; in test [2] it was above 30 µM.

Consider `Nc1cc(C(=O)N2CCC([C@@H](N)c3cc(Cl)c(Cl)cc3O)CC2)ccn1` [Compound 301, 2-[(R)-amino[1-(2-aminopyridine-4-carbonyl)piperidin-4-yl]methyl]-4,5-dichlorophenol trifluoroacetic acid], for which the IC50 in test [1] is below 500 nM; in test [2], above 30 µM.

In the case of `N[C@@H](c1cc(Cl)c(Cl)cc1O)C1CCN(C(=O)[C@@H]2CCC(=O)NC2)CC1` (single isomer, unassigned; isomer 2) [Compound 222], the IC50 is below 500 nM in test [1] and above 30 µM in test [2].

Take `COCC(=O)N1CCC([C@@H](N)c2cc(Cl)c(Cl)cc2O)CC1` [Compound 134, 1-[4-[(R)-amino(4,5-dichloro-2-hydroxyphenyl)methyl]piperidin-1-yl]-2-methoxyethan-1-one trifluoroacetic acid]: the IC50 in test [1] is below 500 nM; in test [2], below 30 µM.

With `N[C@@H](c1cc(Cl)c(Cl)cc1O)C1CCN(C(=O)[C@H]2CCNC2)CC1` (single isomer, unassigned) [Compound 85], the IC50 was below 500 nM in test [1] and above 30 µM in test [2].

In the case of `Cn1cc(C(=O)N2CCC([C@@H](N)c3cc(Cl)c(Cl)cc3O)CC2)cn1` [Compound 203, (R)-(4-(amino(4,5-dichloro-2-hydroxyphenyl)methyl)piperidin-1-yl) (1-methyl-1H-pyrazol-4-yl)methanone], the IC50 was below 500 nM in test [1] and below 30 µM in test [2].

For `C[C@]1(C(=O)N2CCC([C@@H](N)c3cc(Cl)c(Cl)cc3O)CC2)CCCN1` [Compound 96], the IC50 in test [1] is below 500 nM; in test [2], above 30 µM.

For the molecule `CC(=O)N1CCC(C(N)c2cc(Cl)c(Cl)cc2O)CC1` (stereo not drawn) [Compound 9, 1-(4-(amino(4,5-dichloro-2-hydroxyphenyl)methyl)piperidin-1-yl)ethanone], the IC50 was below 10000 nM in test [1] and above 30 µM in test [2].

(Values after patent US20230023559A1, “ARYLMETHYLENE HETEROCYCLIC COMPOUNDS AS KV1.3 POTASSIUM SHAKER CHANNEL BLOCKERS” (D. E. Shaw Research, LLC, priority 2019, published 2023).)
